# Key:
# [1] = Drug excretion in Sprague-Dawley rat urine treated with oxprenolol at 20 mg/kg, ip after 24 hrs by GC-CIMS analysis in presence of beta-glucuronidase and CH2N2; format: ADME, organism-based; design: dose 20 mg/kg, route intraperitoneal; settings: in vivo
# [2] = Retention time of the compound by gas chromatography; format: physicochemical
# [3] = Drug excretion in Sprague-Dawley rat urine treated with oxprenolol at 20 mg/kg, ip after 24 hrs by GC-CIMS analysis; format: ADME, organism-based; design: dose 20 mg/kg, route intraperitoneal; settings: in vivo
SMILES,Drug excretion [1],Retention_time [2] [min],Drug excretion [3]
C=CCOc1cc(OC)ccc1OCC(O)CNC(C)C.O=C(O)C(F)(F)F (centres undefined),metabolite_detected,13.1,–
C=CCOc1c(OC)cccc1OCC(O)CNC(C)C.O=C(O)C(F)(F)F (centres undefined),–,9.6,–
C=CCOc1cccc(OC)c1OCC(O)CNC(C)C.O=C(O)C(F)(F)F (centres undefined),–,10.5,–
C=CCOc1ccccc1OCC(O)CNC(C)C.O=C(O)C(F)(F)F (centres undefined),–,5.7,–
C=CCOc1cc(O)ccc1OCC(O)CNC(C)C (centres undefined),–,–,metabolite_detected
C=CCOc1ccc(O)cc1OCC(O)CNC(C)C (centres undefined),–,–,metabolite_detected
C=CCOc1ccc(OC)cc1OCC(O)CNC(C)C.O=C(O)C(F)(F)F (centres undefined),metabolite_detected,11.8,–
